Experimental data published in paper PMC6541611, “The UbiX flavin prenyltransferase reaction mechanism resembles class I terpene cyclase chemistry” (Nature Communications, 2019).
Read-outs that look alike come from different tables or passages of the source.

Tests used:
AnUbiX [1] = molecular target: T1, AnUbiX (Aspergillus niger, UniProt A3F715); test: crystal structure; format: binding
T1 construct: gene PAD1
T1 sequence (A3F715 1-227): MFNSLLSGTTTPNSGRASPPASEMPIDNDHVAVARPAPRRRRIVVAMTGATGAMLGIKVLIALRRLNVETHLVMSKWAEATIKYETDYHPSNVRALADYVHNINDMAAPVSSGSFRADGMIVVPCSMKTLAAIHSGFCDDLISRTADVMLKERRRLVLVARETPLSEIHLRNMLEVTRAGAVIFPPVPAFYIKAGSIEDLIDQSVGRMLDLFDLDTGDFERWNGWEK

EcUbiX = molecular target: T2, EcUbiX (Escherichia coli, UniProt P0AG03); test: UV-Vis single turnover; format: biochemical
T2 construct: gene ubiX
T2 sequence (P0AG03 1-189): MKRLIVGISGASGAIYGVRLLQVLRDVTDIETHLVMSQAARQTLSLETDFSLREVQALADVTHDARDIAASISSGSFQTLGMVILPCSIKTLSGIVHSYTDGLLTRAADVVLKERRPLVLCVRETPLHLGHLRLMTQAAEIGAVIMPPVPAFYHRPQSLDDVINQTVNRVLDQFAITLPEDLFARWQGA

AnUbiX [2] = molecular target: T1, AnUbiX; test: UV-Vis single turnover; format: biochemical

CC(C)=CCOP(=O)(O)OP(=O)(O)O [DMAPP]
crystal structure (AnUbiX [1]; co-purified, no exogenous DMAPP added, with oxidised FMN, pH 6.2): electron density directly located above the oxidised FMN that corresponds to a bound DMAPP
UV-Vis single turnover (EcUbiX; 2 mM DMAPP, FMNH2, pH 8, prFMN formed): is only able to catalyse DMAPP-specific prFMNH2 formation under the conditions tested

CC(C)=CCOP(=O)(O)O [DMAP]
UV-Vis single turnover (AnUbiX [2]): Crucially, DMAP incubation does affect the resulting FMN spectrum
UV-Vis single turnover (EcUbiX): AnUbiX and EcUbiX appear to catalyse the prenyltransferase step with DMAP

Cc1cc2nc3c(=O)[nH]c(=O)nc-3n(C[C@H](O)[C@H](O)[C@H](O)COP(=O)(O)O)c2cc1C [FMN]
crystal structure (AnUbiX [1]): The crystal structure of AnUbiX in complex with FMN and DMAPP
